How the values were obtained:
DmGSTE1 [1] = biological target: T1, DmGSTE1 (Drosophila melanogaster, UniProt Q7KK90); assay: X-ray crystal structure, […] Å; type: binding; details: G site; mixture with reduced glutathione at equal occupancies; sulfoxide H-bonds Ser14
T1 construct: gene GstE1; recombinant, codon-optimized gene in pET28a (NdeI/SacI), E. coli; homodimer; residues Ser2-Asp223 described in the structure
T1 sequence (Q7KK90 1-224): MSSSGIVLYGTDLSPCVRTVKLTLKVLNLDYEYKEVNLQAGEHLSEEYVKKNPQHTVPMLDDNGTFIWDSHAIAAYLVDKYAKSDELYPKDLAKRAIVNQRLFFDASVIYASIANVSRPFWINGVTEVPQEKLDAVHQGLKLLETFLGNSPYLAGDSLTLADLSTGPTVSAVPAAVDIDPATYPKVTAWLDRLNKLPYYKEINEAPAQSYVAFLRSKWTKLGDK

DmGSTE1 [2] = biological target: T1, DmGSTE1; assay: spectrophotometric CDNB conjugation, […] nm, Michaelis-Menten fit; type: biochemical; details: 2 mM GSH; 100 mM sodium phosphate pH 6.5; 25 °C; 50 nM enzyme
[3] = biological target: the molecule itself; assay: crystal structure; sitting-drop vapour diffusion at 4 °C; 15 mg/mL DmGSTE1 in 20 mM Tris-HCl pH 7.4; 20% w/v PEG 8000, 100 mM MES pH 6.0, 200 mM Ca acetate; space group P212121, one dimer in the asymmetric unit; glutathione bound

## N[C@@H](CCC(=O)N[C@@H](CSO)C(=O)NCC(=O)O)C(=O)O [GS8]
DmGSTE1 [1]
  X-ray crystal structure, 1.80 Å: occupied by a mixture of glutathione and glutathione sulfoxide refined with equal occupancies

## O=[N+]([O-])c1ccc(Cl)c([N+](=O)[O-])c1 [CDNB, 1-chloro-2,4-dinitrobenzene]
DmGSTE1 [2]
  Km: 15 ± 4 µM

B1: Drosophila melanogaster GSTE1 (enzyme)
chain: T1 sequence (Q7KK90 1-224)
notes: Glutathione S-transferase E1 (Epsilon class), Drosophila melanogaster; the crystal model is described as Ser2-Tyr88 (N-terminal thioredoxin domain) and Pro89-Asp223 (C-terminal domain); Cloned in pET28a between NdeI and SacI; Crystallised with glutathione / glutathione sulfoxide in the G site; also called DmGSTE1; source: E. coli, purified (GSTrap Fast Flow, eluted with 10 mM reduced glutathione, …)
[3]
  stoichiometry N: 2
